{
  "source": "patent US20060153912A1",
  "about": "(BASF Aktiengesellschaft, priority 2002, published 2006)",
  "key": {"[1]": {"experiment": "Color stability of 50% strength water/methanol solutions stirred at reflux (65° C.) in air, Gardner/Hazen color number"}, "[2]": {"experiment": "Color stability of 10% strength solutions in water/methanol (1:1), 7 h at 65° C., with and without stabilizer", "assay_type": "physicochemical", "details": "10% strength solution in water/methanol (1:1), no additive", "experimental": "The experiments took place under the following conditions: 10% strength solutions in water/methanol (1:1)—7 h at 65° C."}, "[3]": {"details": "50% choline ascorbate solution, additive 1% by weight, reaction time 4 h"}, "[4]": {"details": "50% solution in 1:1 water/methanol, without additive, reaction time 0 h"}, "[5]": {"details": "50% solution in 1:1 water/methanol, without additive, reaction time 1 h"}, "[6]": {"details": "50% solution in 1:1 water/methanol, without additive, reaction time 7 h"}, "[7]": {"details": "50% choline ascorbate solution, additive 1% by weight, reaction time 3 h"}, "[8]": {"details": "50% choline ascorbate solution, additive 1% by weight, reaction time 5 h"}},
  "data": [
    {"compound": "O=C(O)CCCC[C@@H](S)CCS", "note": "(racemic) [Dihydrolipoic acid]", "values": [
      {"measurement": "Color number Gardner", "setting": "[1]; [3]", "value": 0.2},
      {"measurement": "Color number Hazen", "setting": "[1]; [3]", "value": 53}
    ]},
    {"compound": "C[N+](C)(C)CCO.O=C([O-])C(O)C(O)C(=O)O", "note": "(stereo not drawn) [Choline bitartrate]", "values": [
      {"measurement": "Color number Gardner", "setting": "[1]; [4]", "value": 0.1},
      {"measurement": "Color number Hazen", "setting": "[1]; [4]", "value": 27},
      {"measurement": "Color number Gardner", "setting": "[1]; [5]", "value": 0.1},
      {"measurement": "Color number Hazen", "setting": "[1]; [5]", "value": 30},
      {"measurement": "Color number Gardner", "setting": "[1]; [6]", "value": 0.1},
      {"measurement": "Color number Hazen", "setting": "[1]; [6]", "value": 28},
      {"measurement": "Color number Gardner", "setting": "[2]", "value": 0.1},
      {"measurement": "Color number Hazen", "setting": "[2]", "value": 32}
    ]},
    {"compound": "C[N+](C)(C)CCO.[Cl-]", "note": "[Choline chloride]", "values": [
      {"measurement": "Color number Gardner", "setting": "[2]", "value": 0.1},
      {"measurement": "Color number Hazen", "setting": "[2]", "value": 35}
    ]},
    {"compound": "N[C@@H](CS)C(=O)O", "note": "[Cysteine]", "values": [
      {"measurement": "Color number Gardner", "setting": "[1]; [3]", "value": 0.1},
      {"measurement": "Color number Hazen", "setting": "[1]; [3]", "value": 35}
    ]},
    {"compound": "N[C@@H](CCC(=O)N[C@@H](CS)C(=O)NCC(=O)O)C(=O)O", "note": "[Glutathione]", "values": [
      {"measurement": "Color number Gardner", "setting": "[1]; [3]", "value": 0.4},
      {"measurement": "Color number Hazen", "setting": "[1]; [3]", "value": 122}
    ]},
    {"compound": "O=C1O[C@H]([C@@H](O)CO)C(O)=C1O", "note": "[L-(+)-Ascorbic acid]", "values": [
      {"measurement": "Color number Gardner", "setting": "[1]; [4]", "value": 0.1},
      {"measurement": "Color number Hazen", "setting": "[1]; [4]", "value": 27},
      {"measurement": "Color number Gardner", "setting": "[1]; [5]", "value": 0.1},
      {"measurement": "Color number Hazen", "setting": "[1]; [5]", "value": 31},
      {"measurement": "Color number Gardner", "setting": "[1]; [6]", "value": 0.1},
      {"measurement": "Color number Hazen", "setting": "[1]; [6]", "value": 29},
      {"measurement": "Color number Gardner", "setting": "[2]", "value": 0.1},
      {"measurement": "Color number Hazen", "setting": "[2]", "value": 27}
    ]},
    {"compound": "CC(=O)N[C@@H](CS)C(=O)O", "note": "[N-Acetylcysteine]", "values": [
      {"measurement": "Color number Gardner", "setting": "[1]; [3]", "value": 0.9},
      {"measurement": "Color number Hazen", "setting": "[1]; [3]", "value": 162}
    ]},
    {"compound": "OB(O)c1ccccc1", "note": "[Phenylboronic acid]", "values": [
      {"measurement": "Color number Gardner", "setting": "[1]; [3]", "value": 2.7},
      {"measurement": "Color number Hazen", "setting": "[1]; [3]", "value": 589}
    ]},
    {"compound": "OP(O)O", "note": "[Phosphorous acid]", "values": [
      {"measurement": "Color number Gardner", "setting": "[1]; [3]", "value": 0.7},
      {"measurement": "Color number Hazen", "setting": "[1]; [3]", "value": 163}
    ]},
    {"compound": "O=C1O[C@H]([C@@H](O)CO)C([O-])=C1O.[Na+]", "note": "[Sodium ascorbate]", "values": [
      {"measurement": "Color number Gardner", "setting": "[1]; [4]", "value": 0.1},
      {"measurement": "Color number Hazen", "setting": "[1]; [4]", "value": 26},
      {"measurement": "Color number Gardner", "setting": "[1]; [5]", "value": 0.1},
      {"measurement": "Color number Hazen", "setting": "[1]; [5]", "value": 28},
      {"measurement": "Color number Gardner", "setting": "[1]; [6]", "value": 0.1},
      {"measurement": "Color number Hazen", "setting": "[1]; [6]", "value": 31},
      {"measurement": "Color number Gardner", "setting": "[2]", "value": 0.1},
      {"measurement": "Color number Hazen", "setting": "[2]", "value": 31}
    ]},
    {"compound": "O=c1[nH]c(=O)c2[nH]c(=O)[nH]c2[nH]1", "note": "[Uric acid]", "values": [
      {"measurement": "Color number Gardner", "setting": "[1]; [7]", "value": 0.9},
      {"measurement": "Color number Hazen", "setting": "[1]; [7]", "value": 162},
      {"measurement": "Color number Gardner", "setting": "[1]; [8]", "value": 1.4},
      {"measurement": "Color number Hazen", "setting": "[1]; [8]", "value": 237}
    ]}
  ]
}
